Test results from patent US11485980B2, “Method of meristem excision and transformation” (Monsanto Technology LLC, priority 2007, dated 2022).

What was measured:
cotton explants [1] = experiment: Selection of transformed cotton explants with selective agent in tissue culture medium
cotton explants [2] = experiment: Spectinomycin in co-cultivation medium during Agrobacterium-mediated transformation; conditions: spectinomycin 50-100 ppm included in the co-cultivation medium; FIG. 8
Description: After the PlantconTM was closed, it was inserted into an appropriately sized holder, which was placed into a sonicator (e.g. L&R Ultrasonics QS140; L&R Manufacturing Co., […].; or a Honda […] sonicator, Honda, Denshi Japan). […] Sigma 526-36-23; Sigma Chemical Co, St. Louis, Mo.). After up to 5 min of sonication, the PlantconTM was placed securely on a shaker at 65-70 rpm or higher for 10 min for incubation. After inoculation, the Agrobacterium inoculum was removed from the PlantconTM. […] The INO medium may also be supplemented with plant growth regulators such as gibberellins (GA3), auxins (e.g. NAA, IBA, IAA, 2,4-D, dicamba, etc), cytokinins (e.g.

| Structure (SMILES) | Appearance of non-transformed tissues under selection (cotton explants [1]; spectinomycin selection, transformed tissues green and properly developing, FIG. 5) | Effect on transformation frequency (TF) (cotton explants [2]) | Stably transformed plants produced at concentrations (ppm) (cotton explants [1]; selection agent in tissue culture medium, machine excised cotton explants after Agrobacterium co-cultivation) |
| --- | --- | --- | --- |
| CN[C@@H]1[C@H](O)[C@H](NC)[C@H]2O[C@@]3(O)C(=O)C[C@@H](C)O[C@H]3O[C@@H]2[C@H]1O [spectinomycin] | bleached and often malformed | enhanced TF | – |
| COc1c(Cl)ccc(Cl)c1C(=O)O [dicamba] | – | – | 0.3 |
